From patent publication US20190308956A1, “PIPERAZINE DERIVATIVES AS ANTIVIRAL AGENTS WITH INCREASED THERAPEUTIC ACTIVITY” (SERVICIO ANDALUZ DE SALUD, priority 2016, published 2019)

Legend:
HAdV5-GFP [1] = experiment: Plaque assay, HAdV5-GFP in 293β5 cells; assay type: cell-based
Description: 1.5. Plaque assay. For low MOI infections, active compounds were further evaluated in a plaque assay. 293β5 cells were seeded in 6-well plates at 4×10^5 cells per well in duplicate for each condition. When cells reached 80-90% confluency, they were infected with HAdV5-GFP or HAdV16-GFP (0.06 vp/cell) and rocked for 2 h at 37° C. The inoculum was removed and the cells were washed once with PBS. The cells were then carefully overlaid with 4 ml/well of equal parts of 1.6% […] Difco Agar Noble (Becton, Dickinson & Co, Sparks, MD) and 2× EMEM (BioWhittaker) supplemented with 2x penicillin/streptomycin, 2× L-glutamine and 10% FBS. The mixture also contained compound in concentrations ranging from 5 to 1 μM. Following incubation for 7 days at 37° C., plates were scanned with a Typhoon 9410 imager (GE Healthcare Life Sciences), and plaques were quantified with ImageJ.43
For the plaque assay 293β5 cells were infected with HAdV5-GFP (in the presence of compound at 10 μM) (Table 2). From this generation of compounds, our primary screening identified 4 compounds (12, 13, 22 and 25) that inhibited HAdV5-GFP plaque formation >90% compared to a control with the same volume of DMSO.

[2] = tested on: Acinetobacter baumannii strains resistant to colistine; experiment: Minimal inhibitory concentration (MIC), microdilution in MHBII; assay type: cell-based; settings: 5×10^5 CFU/ml, 18 h; for CMI (MIC) Ab 11: strain Ab 11, MHBII; for CMI (MIC) Ab 17: strain Ab 17, MHBII; for CMI (MIC) Ab 21R: strain Ab 21R; for CMI (MIC) Ab 21R / CMI (MIC) Ab 22P: MHBII; for CMI (MIC) Ab 24: strain Ab 24, MHBII; for CMI (MIC) Ab 14: strain Ab 14, MHBII; for CMI (MIC) Ab 22P: strain Ab 22P
Excerpt: (§1) All of the strains used were Acinetobacter baumannii strains resistant to colistine: Resistance (R)≥4 Sensibility (S)≤2—All of these strains have been disclosed in Valencia R, Arroyo L A, Conde M, Aldana J M, Torres M J, Fernandez-Cuenca F, et al. Nosocomial outbreak of infection with pan-drug-resistant Acinetobacter baumannii in a tertiary care university hospital. Infection control and hospital epidemiology. 2009; 30(3):257-63. The specific strains used were the following: 1, 10, 11, 14, 16, 17, 19, 20, 21R, 22P, 24, 99 and 113.
Microdilution in cell medium Mueller Hinton Broth II (MHBII). This technique was carried out solely in those piperazines which presented inhibitory activity in the screening study.
We used decreasing concentrations of each piperazine derivative (from 50 μM -0.05 μM) in a concentration of 5×10^5 CFU/ml of each strain of A. baumannii in 96 well plates. These plates were incubated for 18 hours at a temperature 37° C.

HAdV5-GFP [3] = experiment: Entry assay, HAdV5-GFP in A549 cells (GFP expression); assay type: cell-based
Description: 1.3. Entry assay. An initial rapid screening was performed using human A549 epithelial cells (3×10^5 cells/well in Corning black wall, clear bottom 96-well plates) infected with HAdV5-GFP (2,000 vp/cell) in the presence of 50 μM of the candidate antiviral compounds. Virus was preincubated with the compounds (individual and mixed) for 45 minutes at 4° C., and then added to cells. A standard infection curve was generated in parallel by infecting cells in the absence of compounds using serial two-fold dilutions of virus. All reactions were done in triplicate. Cells, virus and compounds were incubated for 48 h at 37° C. and 5% CO2. Infection, as measured by HAdV-mediated GFP expression, was analyzed using a Typhoon 9410 imager (GE Healthcare Life Sciences), and quantified with ImageQuantTL (GE Healthcare Life Sciences).

[4] = tested on: Acinetobacter baumannii strains resistant to colistine; experiment: Screening of inhibition of bacterial growth at 50 μM; assay type: cell-based; settings: 5×10^5 CFU/ml, 18 h; for Screening, growth inhibition Ab 11: strain Ab 11, 50 μM; for Screening, growth inhibition Ab 17: strain Ab 17, 50 μM; for Screening, growth inhibition Ab 21R: strain Ab 21R; for Screening, growth inhibition Ab 21R / Screening, growth inhibition Ab 22P: 50 μM; for Screening, growth inhibition Ab 24: strain Ab 24, 50 μM; for Screening, growth inhibition Ab 14: strain Ab 14, 50 μM; for Screening, growth inhibition Ab 22P: strain Ab 22P
Excerpt: as §1
Evaluation of the inhibition of the bacterial growth of the 4 families of piperazines derivatives was performed by using a final concentration of 50 μM of each piperazine derivative in a concentration of 5×10^5 CFU/ml of each strain of A. baumannii in 96-well plates.
These plates were incubated for 18 hours at 37° C.

A549 cells = experiment: Cytotoxicity assay (alamarBlue cell viability); assay type: cell-based, Human
Description: 1.4. Cytotoxicity assay. The cytotoxicity of the compounds was measured using the AlarmBlue cell viability assay (Invitrogen) according to the manufacturer's instructions. Actively dividing A549 cells were incubated with compounds for 48 h. After the incubation the alamarBlue reagent was added to the cells ( 1/10th alamarBlue reagent in culture medium) for an extra 4 h. The 50% cell cytotoxic concentration (CC50) of the molecules was calculated according to Cheng et al.42 The selectivity index (SI) was evaluated as the ratio of CC50 to IC50, where the IC50 is defined as the concentration of compound that inhibits HAdV infection by 50%.

| SMILES | Inhibition assay in plaque (HAdV5-GFP [1]) | CMI (MIC) Ab 11 [2] [µM] | CMI (MIC) Ab 17 [2] [µM] | CMI (MIC) Ab 21R [2] [µM] | CMI (MIC) Ab 24 [2] [µM] | Starting Inhibition assay (HAdV5-GFP [3]) | Screening, growth inhibition Ab 11 [4] [µM] | Screening, growth inhibition Ab 17 [4] [µM] | Screening, growth inhibition Ab 21R [4] [µM] | Screening, growth inhibition Ab 24 [4] [µM] | CMI (MIC) Ab 14 [2] [µM] | Screening, growth inhibition Ab 14 [4] [µM] | CMI (MIC) Ab 22P [2] [µM] | CC50 (A549 cells) [µM] | Screening, growth inhibition Ab 22P [4] [µM] |
| --- | --- | --- | --- | --- | --- | --- | --- | --- | --- | --- | --- | --- | --- | --- | --- |
| Cc1ccc(NC(=S)N2CCN(C(=O)Cc3ccccc3)CC2C)cc1 (stereo not shown) [Vip 636] | 13.79 ± 25.70 | 50 | 25 | 25 | 50 | 73.72 ± 14.39 | <50 | <50 | <50 | <50 |  |  |  |  |  |
| Cc1ccc(NC(=S)N2CCN(C(=O)OC(C)(C)C)CC2C)cc1 (stereo not shown) [Vip 591] | 49.11 ± 4.73 |  | 50 | 50 |  | 56.61 ± 17.69 |  | <50 | <50 |  | >50 | <50 |  |  |  |
| CC1CN(C(=O)OC(C)(C)C)CCN1C(=S)Nc1ccc(Cl)cc1 (stereo not shown) [Vip 580] | 73.43 ± 4.19 | 50 | 50 | 50 | 50 | 64.11 ± 16.81 | <50 | <50 | <50 | <50 | 50 | <50 | 50 | 167 | <50 |
| CC1CN(C(=O)Cc2ccccc2)CCN1C(=S)Nc1ccc(F)cc1 (stereo not shown) [Vip 638] | 28.90 ± 23.21 |  |  |  | 50 | 72.06 ± 14.91 |  |  |  | <50 |  |  |  |  |  |
| COc1ccc(NC(=S)N2CCN(C(=O)OC(C)(C)C)CC2C)cc1 (stereo not shown) [Vip 590] | 36.55 ± 30.13 |  |  |  |  | 62.79 ± 17.03 |  |  |  |  | >50 | <50 |  |  |  |
| CC1CN(C(=O)Cc2ccccc2)CCN1C(=S)Nc1ccc(C(F)(F)F)cc1 (stereo not shown) [Vip 633] | 45.36 ± 16.56 | 25 | 25 |  | 50 | 43.12 ± 17.16 | <50 | <50 |  | <50 |  |  |  |  |  |
| CC1CN(C(=O)OC(C)(C)C)CCN1C(=S)Nc1ccc(C#N)cc1 (stereo not shown) [Vip 584] | 88.91 ± 15.92 | 50 | 25 | 50 | 50 | 58.11 ± 25.72 | <50 | <50 | <50 | <50 | 50 | <50 | 50 | 175 | <50 |
| CC1CN(C(=O)OC(C)(C)C)CCN1C(=S)Nc1cc(C(F)(F)F)cc(C(F)(F)F)c1 (stereo not shown) [Vip 592] | 11.11 ± 19.25 |  |  |  |  | 71.76 ± 15.00 |  |  |  |  | 3.12 | <50 |  |  |  |
| COc1ccc(NC(=S)N2CCN(C(=O)Cc3ccccc3)CC2C)cc1 (stereo not shown) [Vip 637] | 29.36 ± 36.56 |  | 50 |  | >50 | 61.99 ± 17.15 |  | <50 |  | <50 |  |  |  |  |  |
| CC1CN(C(=O)OC(C)(C)C)CCN1C(=S)Nc1ccc(C(F)(F)F)cc1 (stereo not shown) [Vip 604] | 73.43 ± 22.49 |  |  | 25 | 25 | 43.24 ± 17.18 |  |  | <50 | <50 |  |  | 25 |  | <50 |
